Legend:
Format in all cases: cell-based
[1] = tested on: β-catenin-TCF-mediated reporter transcription activity in Colo 205 cells; test: Colo 205 reporter assay (TCF/LEF promoter-driven firefly luciferase); details: Homo sapiens; Colo 205 TCF/LEF luciferase reporter, 5 hours after compound addition, 384 well; read-out: Colo205 IC50
[2] = tested on: XBP1(u)-luciferase splicing reporter in HepG2 hepatoma cells; test: HepG2 XBP1 reporter assay (XBP1(u)-Luc); details: Homo sapiens; for EC50: 6 hours after compound addition, Table 3, read-out: XBP1-luc HepG2 1 EC50; for IC50: 6 h, six hours after addition of compound
[3] = tested on: intracellular calcium flux in Colo-205 cells; test: Calcium flux assay (FLIPR Calcium 5 Assay Kit, FLIPR3); details: Homo sapiens, 0.6 h, calcium flux measured over 36 minutes, read-out: Colo 205 Calcium Flux assay 384w Boston Ca assay FLIPR3 Colo EC50
Description: Compounds described herein induced ER stress by causing intracellular calcium flux. Calcium flux was measured in Colo-205 cells using the FLIPR® Calcium 5 Assay Kit according to manufacturer's protocol (Molecular Devices, Cat. #R8186) on a FLIPR3 system (Molecular Devices). Calcium flux is measured over 36 minutes. The Colo-205 calcium flux assay data are summarized in Table 3: A<0.6 μM; 0.6 μM≤B<2.0 μM; 2.0 μM≤C<10.0 μM; D≥10.0 μM.

[4] = tested on: NCI-H929 (Multiple myeloma cells); test: Cell viability (ATPLite) in NCI-H929; details: Homo sapiens, 96 hours
Description: Cells were removed from liquid nitrogen storage, thawed and expanded in appropriate growth media. Once expanded, cells were seeded in 384-well tissue culture treated plates at 500 cells per well. After 24 hours, cells were treated for either 0 hours or treated for 96 hours with a testing compound (at the concentrations of 100 nM and 2 uM). At the end of either 0 hours or 96 hours, cell status was analyzed using ATPLite (Perkin Elmer) to assess the biological response of cells to the testing compound.

Row | IC50 [1] | EC50 [2] | EC50 [3] | IC50 [2] | IC50 [4] | Compound
1 | 300 to 1000 nM | 2000 to 5000 nM | 600 to 2000 nM |  |  | CC(C)c1cc(N2CCCCCC2c2ccccc2Cl)nc(N)n1 (racemic) [I-16, (+/−)-4-(2-(2-chlorophenyl)azepan-1-yl)-6-isopropylpyrimidin-2-amine]
2 | 300 to 1000 nM | < 600 nM | 600 to 2000 nM |  |  | CCc1cc(N2CCCCCC2c2ccccc2Cl)nc(N)n1 (racemic) [I-17, (+/−)-4-(2-(2-chlorophenyl)azepan-1-yl)-6-ethylpyrimidin-2-amine]
3 | 300 to 1000 nM |  | < 600 nM |  |  | Cc1cc(N2CCCCCC2c2ccc(S(C)(=O)=O)cc2C)nc(N)n1 (racemic) [I-37, (+/−)-4-methyl-6-(2-(2-methyl-4-(methylsulfonyl)phenyl)azepan-1-yl)pyrimidin-2-amine]
4 | 300 to 1000 nM | < 600 nM | < 600 nM |  |  | COc1ccc(C2CCCCCN2c2cc(C)nc(N)n2)c(OC)c1 (racemic) [I-51, (+/−)-4-[2-(2,4-dimethoxyphenyl)azepan-1-yl]-6-methyl-pyrimidin-2-amine]
5 | 300 to 1000 nM |  | < 600 nM |  |  | Cc1cc(N2CCCOCC2c2c(F)cccc2Cl)nc(N)n1 (racemic) [I-59, (+/−)-4-(3-(2-chloro-6-fluorophenyl)-1,4-oxazepan-4-yl)-6-methylpyrimidin-2-amine]
6 | 300 to 1000 nM |  | < 600 nM |  |  | Cc1cc(N2CCCOCC2c2cc(F)ccc2Cl)nc(N)n1 (racemic) [I-70, (+/−)-4-[3-(2-chloro-5-fluoro-phenyl)-1,4-oxazepan-4-yl]-6-methyl-pyrimidin-2-amine]
7 | < 300 nM |  | < 600 nM |  |  | Cc1cc(N2CCCOCC2c2cc(N)ccc2Cl)nc(N)n1 (racemic) [I-71, (+/−)-4-(3-(5-amino-2-chlorophenyl)-1,4-oxazepan-4-yl)-6-methylpyrimidin-2-amine]
8 | < 300 nM |  | < 600 nM |  |  | Cc1cc(N2CCCOCC2c2cc(NS(C)(=O)=O)ccc2Cl)nc(N)n1 (racemic) [I-74, (+/−)-N-(3-(4-(2-amino-6-methylpyrimidin-4-yl)-1,4-oxazepan-3-yl)-4-chlorophenyl)methanesulfonamide]
9 | 300 to 1000 nM |  | 600 to 2000 nM |  |  | CNC(=O)c1ccc(OC)c(C2COCCCN2c2cc(C)nc(N)n2)c1 (racemic) [I-82, (+/−)-3-(4-(2-amino-6-methylpyrimidin-4-yl)-1,4-oxazepan-3-yl)-4-methoxy-N-methylbenzamide]
10 | 1000 to 5000 nM | 600 to 2000 nM | < 600 nM |  |  | CCNC(=O)c1ccc(C2COCCCN2c2cc(C)nc(N)n2)c(Cl)c1 (racemic) [I-171, (+/−)-4-[4-(2-amino-6-methyl-pyrimidin-4-yl)-1,4-oxazepan-3-yl]-3-chloro-N-ethyl-benzamide]
11 | 300 to 1000 nM | 2000 to 5000 nM | < 600 nM |  |  | Cc1cc(N2CCCOCC2c2cc(C(=O)NC3CC3)ccc2Cl)nc(N)n1 (racemic) [I-172, (+/−)-3-(4-(2-amino-6-methylpyrimidin-4-yl)-1,4-oxazepan-3-yl)-4-chloro-N-cyclopropylbenzamide]
12 | 300 to 1000 nM | 600 to 2000 nM | < 600 nM |  |  | CCNC(=O)c1ccc(Cl)c(C2COCCCN2c2cc(C)nc(N)n2)c1 (racemic) [I-173, (+/−)-3-[4-(2-amino-6-methyl-pyrimidin-4-yl)-1,4-oxazepan-3-yl]-4-chloro-N-ethyl-benzamide]
13 | < 300 nM | < 600 nM | < 600 nM |  |  | CNc1ccc(Cl)c(C2COCCCN2c2cc(C)nc(N)n2)c1 (racemic) [I-175, (+/−)-4-[3-[2-chloro-5-(methylamino)phenyl]-1,4-oxazepan-4-yl]-6-methyl-pyrimidin-2-amine]
14 | 300 to 1000 nM | 2000 to 5000 nM | < 600 nM |  |  | Cc1cc(N2CCCOCC2c2cc(NC(=O)C3CCO3)ccc2Cl)nc(N)n1 (racemic) [I-184, (+/−)-N-[3-[4-(2-amino-6-methyl-pyrimidin-4-yl)-1,4-oxazepan-3-yl]-4-chloro-phenyl]oxetane-2-carboxamide]
15 | 300 to 1000 nM | 2000 to 5000 nM | < 600 nM |  |  | Cc1cc(N2CCCOCC2c2cc(NC(=O)CC3COC3)ccc2Cl)nc(N)n1 (racemic) [I-185, (+/−)-N-[3-[4-(2-amino-6-methyl-pyrimidin-4-yl)-1,4-oxazepan-3-yl]-4-chloro-phenyl]-2-(oxetan-3-yl)acetamide]
16 | 300 to 1000 nM |  | < 600 nM |  |  | Cc1cc(N2CCCOC[C@@H]2c2ccc(F)cc2F)nc(N)n1 (single isomer, unassigned) [I-62]
17 | < 300 nM |  | < 600 nM |  |  | Cc1cc(N2CCCOC[C@@H]2c2cc(F)ccc2Cl)nc(N)n1 (single isomer, unassigned) [I-79]
18 | < 300 nM |  | < 600 nM |  |  | Cc1cc(N2CCCOC[C@@H]2c2cc(O)ccc2Cl)nc(N)n1 (single isomer, unassigned) [I-170]
19 | 300 to 1000 nM |  | 600 to 2000 nM |  |  | Cc1cc(N2CCCCC[C@@H]2c2ccc(F)cc2C2CC2)nc(N)n1 [I-47, (R)-4-(2-(2-cyclopropyl-4-fluorophenyl)azepan-1-yl)-6-methylpyrimidin-2-amine]
20 | 300 to 1000 nM |  | < 600 nM |  |  | CNC(=O)c1ccc(F)c(C2CCCCCN2c2cc(C)nc(N)n2)c1 (stereo not drawn) [I-55, 3-(1-(2-amino-6-methylpyrimidin-4-yl)azepan-2-yl)-4-fluoro-N-methylbenzamide]
21 | 300 to 1000 nM |  | < 600 nM |  |  | COC(=O)c1ccc(OC)c(C2COCCCN2c2cc(C)nc(N)n2)c1 (stereo not drawn) [I-289]

The remaining lines, values behind:

Row | Compound | IC50 [1] | EC50 [2] | EC50 [3] | IC50 [2] | IC50 [4]
22 | Cc1cc(N2CCCOC[C@H]2c2cc(N3CC[C@H](O)C3)ccc2Cl)nc(N)n1 [D-63] |  |  |  | < 600 nM | < 1000 nM
23 | Cc1cc(N2CCCOC[C@@H]2c2cc(N3CC[C@H](O)C3)ccc2Cl)nc(N)n1 [D-64] |  |  |  | 600 to 2000 nM | 1000 to 10000 nM
24 | Cc1cc(N2CCCOCC2c2cc(O)c(CS(C)(=O)=O)cc2Cl)nc(N)n1 [D-65] |  |  |  | < 600 nM | < 1000 nM
25 | Cc1cc(N2CCCOC[C@H]2c2ccc(C3CCNCC3)cc2Cl)nc(N)n1 [D-68] |  |  |  | < 600 nM | < 1000 nM
26 | CCc1cc(N2CCCOCC2c2cc(O)c(OC)cc2Cl)nc(N)n1 [D-71] |  |  |  | < 600 nM | < 1000 nM
27 | COc1ccc([C@H]2COCCCN2c2cc(C)nc(N)n2)c(Cl)c1 [D-80] |  |  |  | < 600 nM | < 1000 nM
28 | Cc1cc(N2CCCOC[C@@H]2c2ncc(CS(C)(=O)=O)cc2Cl)nc(N)n1 [D-81] |  |  |  | < 600 nM | < 1000 nM
29 | Cc1cc(N2CCCOC[C@@H]2c2cc(O)c(CS(C)(=O)=O)cc2Cl)nc(N)n1 [D-86] |  |  |  | < 600 nM | < 1000 nM
30 | CCc1cc(N2CCCOC[C@@H]2c2cc(O)c(OC)cc2Cl)nc(N)n1 [D-104] |  |  |  | < 600 nM | < 1000 nM
31 | CCc1cc(N2CCCOCC2c2cc(O)c(NC(C)=O)cc2Cl)nc(N)n1 [D-110] |  |  |  | < 600 nM | < 1000 nM
32 | Cc1cc(N2CCCOCC2c2ccc(O)cc2C(F)(F)F)nc(N)n1 [D-111] |  |  |  | < 600 nM | < 1000 nM
33 | CNC(=O)[C@]1(C)CNc2cc(Cl)c([C@H]3COCCCN3c3cc(C)nc(N)n3)cc2O1 [D-116] |  |  |  | < 600 nM | < 1000 nM
34 | Cc1cc(N2CCCOC[C@@H]2c2cc(O)c(C(=O)N(C)C)cc2Cl)nc(N)n1 [D-117] |  |  |  | < 600 nM | < 1000 nM
35 | Cc1cc(N2CCCOC[C@@H]2c2cc(O)c(OC(F)(F)F)cc2Cl)nc(N)n1 [D-119] |  |  |  | < 600 nM | < 1000 nM
36 | Cc1cc(N2CCCOC[C@H]2c2ccc(S(=O)(=O)C3CCC3)cc2Cl)nc(N)n1 [D-141] |  |  |  | ≥ 5000 nM | 1000 to 10000 nM
37 | Cc1cc(N2CCCOC[C@H]2c2ccc(NC(=O)C(F)F)cc2Cl)nc(N)n1 [D-142] |  |  |  | ≥ 5000 nM | < 1000 nM
38 | Cc1cc(N2CCCOC[C@H]2c2cc3c(cc2Cl)NCCC3)nc(N)n1 [D-143] |  |  |  | ≥ 5000 nM | ≥ 25000 nM
39 | Cc1cc(N2CCCOC[C@H]2c2cc3c(cc2Cl)N(C)CC3)nc(N)n1 [D-144] |  |  |  | ≥ 5000 nM | ≥ 25000 nM
40 | Cc1cc(N2CCCOC[C@H]2c2cc(N)c(C(F)(F)F)cc2Cl)nc(N)n1 [D-145] |  |  |  | ≥ 5000 nM | ≥ 25000 nM
41 | Cc1cc(N2CCCOCC2c2ccc(CS(C)(=O)=O)[nH]c2=O)nc(N)n1 [D-146] |  |  |  | ≥ 5000 nM | ≥ 25000 nM
42 | Cc1cc(N2CCCOC[C@H]2c2ccc(CS(C)(=O)=O)cc2OC(F)F)nc(N)n1 [D-152] |  |  |  | ≥ 5000 nM | ≥ 25000 nM
43 | CCOc1cc([C@@H]2COCCCN2c2cc(C)nc(N)n2)c(Cl)cc1OC [D-153] |  |  |  | ≥ 5000 nM | ≥ 25000 nM
44 | Cc1cc(N2CCCOC[C@H]2c2cc3c(cc2Cl)OCC(C)(C)CO3)nc(N)n1 [D-154] |  |  |  | ≥ 5000 nM | ≥ 25000 nM
45 | CCOC(=O)[C@]1(C)CNc2cc(Cl)c([C@@H]3COCCCN3c3cc(C)nc(N)n3)cc2O1 [D-155] |  |  |  | ≥ 5000 nM | ≥ 25000 nM
46 | CCOC(=O)[C@@]1(C)CNc2cc(Cl)c([C@@H]3COCCCN3c3cc(C)nc(N)n3)cc2O1 [D-157] |  |  |  | ≥ 5000 nM | ≥ 25000 nM
47 | Cc1cc(N2CCCOC[C@H]2c2ccc(OS(C)(=O)=O)cc2OC(F)(F)F)nc(N)n1 [D-158] |  |  |  | ≥ 5000 nM | ≥ 25000 nM
48 | COc1cc([C@@H]2COCCCN2c2cc(C)nc(N)n2)c(Cl)cc1OCC#N [D-159] |  |  |  | ≥ 5000 nM | ≥ 25000 nM

Reference: US11440907B1 (Merck Patent GmbH, priority 2018, dated 2022)
